Here are results for eleven molecules from ChEMBL document CHEMBL1131666, “Discovery of a novel series of selective MMP inhibitors: identification of the gamma-sulfone-thiols” (Bioorg Med Chem Lett, 1999).

The IC50 is the concentration at which inhibition is half-maximal. Low readings indicate greater potency in that assay, high ones weaker potency in that assay.

Assay [1] addresses T1, Interstitial collagenase (Homo sapiens, UniProt P03956).
T1 sequence (P03956 whole entry): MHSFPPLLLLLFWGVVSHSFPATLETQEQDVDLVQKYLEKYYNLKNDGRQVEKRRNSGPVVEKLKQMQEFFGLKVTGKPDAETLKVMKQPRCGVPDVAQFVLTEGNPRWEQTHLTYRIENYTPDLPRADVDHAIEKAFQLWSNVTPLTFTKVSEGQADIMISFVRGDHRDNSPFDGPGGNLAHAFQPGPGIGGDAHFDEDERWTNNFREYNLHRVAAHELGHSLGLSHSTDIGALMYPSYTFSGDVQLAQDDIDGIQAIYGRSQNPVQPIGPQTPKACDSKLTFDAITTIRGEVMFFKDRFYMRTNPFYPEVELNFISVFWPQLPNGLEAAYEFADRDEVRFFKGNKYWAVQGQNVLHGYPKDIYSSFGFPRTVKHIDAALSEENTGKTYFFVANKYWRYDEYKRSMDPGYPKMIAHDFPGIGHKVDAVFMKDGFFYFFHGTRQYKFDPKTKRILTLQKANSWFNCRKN
As to the kind of experiment: Inhibition of matrix metalloprotease-1 (MMP-1).

Assay [2] has as its target Collagenase 3 (Homo sapiens, UniProt P45452). As to the kind of experiment: Inhibition of Matrix metalloprotease-13 (MMP-13).
Assay [3] addresses Stromelysin-1 (Homo sapiens, UniProt P08254). As to the kind of experiment: Inhibition of matrix metalloprotease-3 (MMP-3).
In assay [4] the target is Neutrophil collagenase (Homo sapiens, UniProt P22894). Kind of assay: Inhibition of Matrix metalloprotease-8.
Neutrophil collagenase, sequence (P22894 whole entry): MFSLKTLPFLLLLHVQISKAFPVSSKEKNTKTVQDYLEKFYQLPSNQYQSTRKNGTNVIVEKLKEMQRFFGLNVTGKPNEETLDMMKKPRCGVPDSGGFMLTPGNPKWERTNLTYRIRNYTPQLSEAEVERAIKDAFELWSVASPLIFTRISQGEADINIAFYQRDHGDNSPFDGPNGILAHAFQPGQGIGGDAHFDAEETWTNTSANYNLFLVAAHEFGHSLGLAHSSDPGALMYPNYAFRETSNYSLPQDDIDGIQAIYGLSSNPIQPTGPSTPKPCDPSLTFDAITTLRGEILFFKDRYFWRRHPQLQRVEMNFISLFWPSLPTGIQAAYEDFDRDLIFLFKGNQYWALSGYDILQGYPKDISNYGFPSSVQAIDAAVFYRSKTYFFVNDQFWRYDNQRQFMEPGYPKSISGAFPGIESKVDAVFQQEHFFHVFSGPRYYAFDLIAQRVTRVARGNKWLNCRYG

Some results are limits rather than exact numbers.

Stromelysin-1, sequence (P08254 whole entry): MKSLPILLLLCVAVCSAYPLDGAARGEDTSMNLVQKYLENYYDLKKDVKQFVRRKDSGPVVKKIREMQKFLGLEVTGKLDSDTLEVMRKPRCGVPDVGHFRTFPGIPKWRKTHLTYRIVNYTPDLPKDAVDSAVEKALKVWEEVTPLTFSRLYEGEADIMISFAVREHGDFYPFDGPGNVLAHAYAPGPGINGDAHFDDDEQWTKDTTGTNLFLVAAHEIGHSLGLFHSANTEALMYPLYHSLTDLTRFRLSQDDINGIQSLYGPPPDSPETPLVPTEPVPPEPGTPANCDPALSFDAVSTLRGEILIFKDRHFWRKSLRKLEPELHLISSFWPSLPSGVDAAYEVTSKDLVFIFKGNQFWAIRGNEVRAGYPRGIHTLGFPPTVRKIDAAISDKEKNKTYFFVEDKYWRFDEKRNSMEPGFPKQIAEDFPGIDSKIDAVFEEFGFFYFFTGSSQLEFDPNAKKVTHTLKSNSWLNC

As to `COc1ccc(S(=O)(=O)CCC(C)S)cc1` (stereo not drawn), the results for the IC50 in assay [1] and in assay [2] were 8000 nM and 32 nM, respectively. Regarding `COC(=O)C(S)CCS(=O)(=O)c1ccc(OC)cc1` (stereo not drawn), 4000 nM corresponded to half-maximal inhibition in assay [1] (IC50). Consider `CCCC(CCS)S(=O)(=O)c1ccc(OC)cc1` (stereo not drawn), for which inhibition in assay [2] was half-maximal at 6 nM (IC50). This counts as single-digit nanomolar.

In assay [1], `COc1ccc(S(=O)(=O)CC(C)(C)CS)cc1` displayed a 50% inhibitory concentration (IC50) greater than 10000 nM. In turn, `CCCCC(S)CCS(=O)(=O)c1ccc(OC)cc1` (stereo not drawn) had an IC50 in assay [1] greater than 10000 nM. Consider `COc1ccc(S(=O)(=O)C[C@@H](C)CS)cc1`, for which the IC50 was 5000 nM in assay [1] and 250 nM in assay [2]. On to `COc1ccc(S(=O)(=O)C(CCS)c2ccccc2)cc1` (stereo not drawn), for which, in assay [1], the concentration for half-maximal inhibition (IC50) is greater than 10000 nM. Consider `O=S(=O)(CCCS)c1ccc(Oc2ccccc2)cc1`, for which the IC50 stood at 1500 nM in assay [1], 500 nM in assay [3], 4 nM in assay [4] and 0.5 nM in assay [2].

The molecule `COc1ccc(S(=O)(=O)C[C@H](C)CS)cc1` gave an IC50 in assay [1] greater than 10000 nM. Consider `O=S(=O)(CCCS)c1ccc(Sc2ccccc2)cc1`, for which the 50% inhibitory concentration (IC50) in assay [1] is greater than 10000 nM; in assay [3], 150 nM; in assay [4] it was 36 nM. `COc1ccc(S(=O)(=O)CCCS)cc1` gave a half-inhibitory concentration (IC50) in assay [1] greater than 10000 nM.
